Laboratory results as given in PubChem BioAssay (NCI).
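All cell lines were grown in 96-well plates and treated with compound for 48 hours. At the GI50, growth is halved. The concentration for full growth arrest is given as TGI.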 Where a SMILES comes first, the peptide text is derived from it. [ ]: non-standard residue; d: D form. The star is where a group is joined. ξ: configuration not given here. Decanoyl(3R-OH) = CCCCCCC[C@@H](O)CC(=O)*; ξK = NCCCCC(N)C(=O)O; ξP = O=C(O)C1CCCN1

Key:
Test in all cases: NCI anticancer screen, dose series, 48 h
OVCAR-8 ovarian = tested on: OVCAR-8 ovarian
HL-60(TB) leukemia = tested on: HL-60(TB) leukemia
DU-145 prostate = tested on: DU-145 prostate
T-47D breast = tested on: T-47D breast
SK-OV-3 ovarian = tested on: SK-OV-3 ovarian
OVCAR-4 ovarian = tested on: OVCAR-4 ovarian
SK-MEL-28 melanoma = tested on: SK-MEL-28 melanoma
SNB-19 CNS = tested on: SNB-19 CNS
SNB-75 CNS = tested on: SNB-75 CNS
ACHN renal = tested on: ACHN renal
UO-31 renal = tested on: UO-31 renal
NCI-H226 lung = tested on: NCI-H226 lung
HCC-2998 colon = tested on: HCC-2998 colon
MDA-MB-231 breast = tested on: MDA-MB-231 breast
MCF7 breast = tested on: MCF7 breast
SK-MEL-2 melanoma = tested on: SK-MEL-2 melanoma
SN12C renal = tested on: SN12C renal
TK-10 renal = tested on: TK-10 renal
A498 renal = tested on: A498 renal
NCI-H460 lung = tested on: NCI-H460 lung
SF-268 CNS = tested on: SF-268 CNS
HCT-116 colon = tested on: HCT-116 colon
HT29 colon = tested on: HT29 colon
LOX IMVI melanoma = tested on: LOX IMVI melanoma
UACC-257 melanoma = tested on: UACC-257 melanoma
SF-295 CNS = tested on: SF-295 CNS
RXF 393 renal = tested on: RXF 393 renal
COLO 205 colon = tested on: COLO 205 colon
CAKI-1 renal = tested on: CAKI-1 renal
MDA-MB-435 = tested on: MDA-MB-435
HS 578T breast = tested on: HS 578T breast
NCI-H23 lung = tested on: NCI-H23 lung
EKVX NSCLC = tested on: EKVX NSCLC
BT-549 breast = tested on: BT-549 breast
U251 CNS = tested on: U251 CNS
SK-MEL-5 melanoma = tested on: SK-MEL-5 melanoma
SW-620 colon = tested on: SW-620 colon
HOP-62 NSCLC = tested on: HOP-62 NSCLC
M14 melanoma = tested on: M14 melanoma
RPMI-8226 leukemia = tested on: RPMI-8226 leukemia
IGROV1 ovarian = tested on: IGROV1 ovarian
NCI/ADR-RES ovarian = tested on: NCI/ADR-RES ovarian
UACC-62 melanoma = tested on: UACC-62 melanoma
MOLT-4 leukemia = tested on: MOLT-4 leukemia
786-0 renal = tested on: 786-0 renal
SR leukemia = tested on: SR leukemia
K-562 leukemia = tested on: K-562 leukemia
HOP-92 NSCLC = tested on: HOP-92 NSCLC
SF-539 CNS = tested on: SF-539 CNS
PC-3 prostate = tested on: PC-3 prostate
KM12 colon = tested on: KM12 colon
HCT-15 colon = tested on: HCT-15 colon
CCRF-CEM leukemia = tested on: CCRF-CEM leukemia

Compound `CCCCCCC[C@@H](O)CC(=O)N[C@H](CCCCN)C(=O)N[C@H](Cc1c[nH]c2ccccc12)C(=O)NC(CCCCN)C(=O)N[C@H](CC(C)C)C(=O)N[C@H](Cc1ccccc1)C(=O)N[C@H](CCCCN)C(=O)N[C@H](CCCCN)C(=O)N[C@H](CC(C)C)C(=O)N1CCCC1C(=O)N[C@H](CCCCN)C(=O)N[C@H](Cc1ccccc1)C(=O)N[C@H](CC(C)C)C(=O)N[C@H](Cc1c[nH]cn1)C(=O)N[C@H](CC(C)C)C(=O)N[C@H](C)C(=O)N[C@H](CCCCN)C(=O)N[C@H](CCCCN)C(=O)N[C@H](Cc1ccccc1)C(=O)O` (stereo partly drawn) ({Decanoyl(3R-OH)}-[dK][dW][ξK][dL][dF][dK][dK][dL][ξP][dK][dF][dL][dH][dL][dA][dK][dK][dF]-OH) has a GI50 (OVCAR-8 ovarian) of 814 nM, a TGI (OVCAR-8 ovarian) of 33.3 µM and a GI50 (HL-60(TB) leukemia) of 743 nM. For the same compound, the TGI (HL-60(TB) leukemia) was 1710 nM, the GI50 (DU-145 prostate) was 607 nM and the TGI (DU-145 prostate) was 1.12 µM.
`C=CCOC(=O)CCCCCCCCCCCCCCCOC(=O)C1=C(CCC[C@@H](C)O[Si](C)(C)C(C)(C)C)N=C(N)N2[C@H](CC3(CC/C=C\[C@H](CC)O[Si](C(C)C)(C(C)C)C(C)C)OCCO3)CC[C@@H]12` was tested, and the TGI (T-47D breast) was greater than 100 µM, the TGI (SK-OV-3 ovarian) was greater than 100 µM and the TGI (OVCAR-4 ovarian) was greater than 100 µM. It also gave a TGI (SK-MEL-28 melanoma) greater than 100 µM, a TGI (SNB-19 CNS) greater than 100 µM and a TGI (SNB-75 CNS) greater than 100 µM. For the same compound, the TGI (ACHN renal) was greater than 100 µM, the TGI (UO-31 renal) was greater than 100 µM and the TGI (NCI-H226 lung) was greater than 100 µM. For the same compound, the TGI (HCC-2998 colon) was greater than 100 µM, the TGI (DU-145 prostate) was greater than 100 µM and the TGI (MDA-MB-231 breast) was greater than 100 µM. It also gave a TGI (MCF7 breast) greater than 100 µM, a TGI (SK-MEL-2 melanoma) greater than 100 µM and a TGI (SN12C renal) greater than 100 µM. The TGI (TK-10 renal) was greater than 100 µM and the TGI (A498 renal) was greater than 100 µM.
For `CC1=NN(c2nc(N)nc(CS(C)(=O)=O)n2)C(C)(C)C1`, the TGI (T-47D breast) was greater than 100 µM, the TGI (NCI-H460 lung) was greater than 100 µM and the TGI (SK-OV-3 ovarian) was greater than 100 µM. For the same compound, the TGI (SF-268 CNS) was greater than 100 µM, the TGI (HCT-116 colon) was greater than 100 µM and the TGI (HT29 colon) was greater than 100 µM. The TGI (LOX IMVI melanoma) was greater than 100 µM, the TGI (UACC-257 melanoma) was greater than 100 µM and the TGI (SF-295 CNS) was greater than 100 µM. For the same compound, the TGI (OVCAR-4 ovarian) was greater than 100 µM, the TGI (RXF 393 renal) was greater than 100 µM and the TGI (SK-MEL-28 melanoma) was greater than 100 µM. For the same compound, the TGI (SNB-19 CNS) was greater than 100 µM, the TGI (COLO 205 colon) was greater than 100 µM and the TGI (CAKI-1 renal) was greater than 100 µM. For the same compound, the TGI (MDA-MB-435) was greater than 100 µM, the TGI (HS 578T breast) was greater than 100 µM and the TGI (SNB-75 CNS) was greater than 100 µM. For the same compound, the TGI (ACHN renal) was greater than 100 µM, the TGI (NCI-H23 lung) was greater than 100 µM and the TGI (OVCAR-8 ovarian) was greater than 100 µM. For the same compound, the TGI (EKVX NSCLC) was greater than 100 µM, the TGI (UO-31 renal) was greater than 100 µM and the TGI (BT-549 breast) was greater than 100 µM. The TGI (U251 CNS) was greater than 100 µM, the TGI (HCC-2998 colon) was greater than 100 µM and the TGI (SK-MEL-5 melanoma) was greater than 100 µM. The TGI (SW-620 colon) was greater than 100 µM, the TGI (HL-60(TB) leukemia) was greater than 100000 nM and the TGI (HOP-62 NSCLC) was greater than 100 µM. The TGI (DU-145 prostate) was greater than 100 µM, the TGI (M14 melanoma) was greater than 100 µM and the TGI (MDA-MB-231 breast) was greater than 100 µM. It also gave a TGI (RPMI-8226 leukemia) greater than 100 µM, a TGI (IGROV1 ovarian) greater than 100 µM and a TGI (MCF7 breast) greater than 100 µM. For the same compound, the TGI (NCI/ADR-RES ovarian) was greater than 100 µM, the TGI (UACC-62 melanoma) was greater than 100 µM and the TGI (MOLT-4 leukemia) was greater than 100 µM. The TGI (786-0 renal) was greater than 100 µM, the TGI (SK-MEL-2 melanoma) was greater than 100 µM and the TGI (SR leukemia) was greater than 100 µM. It also gave a TGI (K-562 leukemia) greater than 100 µM, a TGI (HOP-92 NSCLC) greater than 100 µM and a TGI (SF-539 CNS) greater than 100 µM. The TGI (PC-3 prostate) was greater than 100 µM, the TGI (TK-10 renal) was greater than 100 µM and the TGI (A498 renal) was greater than 100 µM. It also gave a TGI (KM12 colon) greater than 100 µM, a TGI (HCT-15 colon) greater than 100 µM and a TGI (CCRF-CEM leukemia) greater than 100 µM.
